Results from PubChem BioAssay (NCI).
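Growth conditions: 96-well plates. Treatment: test compound, 48 hours, 5 concentrations. Analysis: linear interpolation between bracketing concentrations; unreached endpoints set to highest concentration. GI50 marks 50% less growth. TGI denotes the concentration required for complete inhibition of growth.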

What was measured:
Assay in all cases: NCI-60 cell line screen, 48 h
CCRF-CEM leukemia = test system: CCRF-CEM leukemia
HS 578T breast = test system: HS 578T breast
EKVX NSCLC = test system: EKVX NSCLC
T-47D breast = test system: T-47D breast
PC-3 prostate = test system: PC-3 prostate
MCF7 breast = test system: MCF7 breast
K-562 leukemia = test system: K-562 leukemia
CAKI-1 renal = test system: CAKI-1 renal
RPMI-8226 leukemia = test system: RPMI-8226 leukemia
SF-295 CNS = test system: SF-295 CNS
SK-OV-3 ovarian = test system: SK-OV-3 ovarian
MDA-MB-435 = test system: MDA-MB-435
UACC-62 melanoma = test system: UACC-62 melanoma
A549 NSCLC = test system: A549 NSCLC
SF-268 CNS = test system: SF-268 CNS
MDA-MB-231 breast = test system: MDA-MB-231 breast
TK-10 renal = test system: TK-10 renal
KM12 colon = test system: KM12 colon
NCI-H460 lung = test system: NCI-H460 lung
IGROV1 ovarian = test system: IGROV1 ovarian
SR leukemia = test system: SR leukemia
A498 renal = test system: A498 renal
OVCAR-3 ovarian = test system: OVCAR-3 ovarian
HCT-15 colon = test system: HCT-15 colon
NCI-H226 lung = test system: NCI-H226 lung
SN12C renal = test system: SN12C renal
MALME-3M melanoma = test system: MALME-3M melanoma
MOLT-4 leukemia = test system: MOLT-4 leukemia
SF-539 CNS = test system: SF-539 CNS
UO-31 renal = test system: UO-31 renal
NCI-H23 lung = test system: NCI-H23 lung
SNB-19 CNS = test system: SNB-19 CNS
U251 CNS = test system: U251 CNS
HCT-116 colon = test system: HCT-116 colon
UACC-257 melanoma = test system: UACC-257 melanoma
NCI/ADR-RES ovarian = test system: NCI/ADR-RES ovarian
SW-620 colon = test system: SW-620 colon
HL-60(TB) leukemia = test system: HL-60(TB) leukemia
HOP-62 NSCLC = test system: HOP-62 NSCLC
SK-MEL-28 melanoma = test system: SK-MEL-28 melanoma
786-0 renal = test system: 786-0 renal
NCI-H522 lung = test system: NCI-H522 lung
DU-145 prostate = test system: DU-145 prostate
M14 melanoma = test system: M14 melanoma
SK-MEL-2 melanoma = test system: SK-MEL-2 melanoma
RXF 393 renal = test system: RXF 393 renal
LOX IMVI melanoma = test system: LOX IMVI melanoma
OVCAR-5 ovarian = test system: OVCAR-5 ovarian
SNB-75 CNS = test system: SNB-75 CNS
BT-549 breast = test system: BT-549 breast
ACHN renal = test system: ACHN renal
SK-MEL-5 melanoma = test system: SK-MEL-5 melanoma
OVCAR-8 ovarian = test system: OVCAR-8 ovarian
HOP-92 NSCLC = test system: HOP-92 NSCLC
HT29 colon = test system: HT29 colon
HCC-2998 colon = test system: HCC-2998 colon
COLO 205 colon = test system: COLO 205 colon

Structure (SMILES): C[C@H](N)C(=O)N1C[C@H](CCCB(O)O)[C@](N)(C(=O)O)C1
- GI50 (CCRF-CEM leukemia): > 100 µM
- TGI (CCRF-CEM leukemia): > 100 µM
- GI50 (HS 578T breast): > 100 µM
- TGI (HS 578T breast): > 100 µM
- GI50 (EKVX NSCLC): > 100 µM
- TGI (EKVX NSCLC): > 100 µM
- GI50 (T-47D breast): > 100 µM
- TGI (T-47D breast): > 100 µM
- GI50 (PC-3 prostate): > 100 µM
- TGI (PC-3 prostate): > 100 µM
- GI50 (MCF7 breast): > 100 µM
- TGI (MCF7 breast): > 100 µM
- GI50 (K-562 leukemia): > 100 µM
- TGI (K-562 leukemia): > 100 µM
- GI50 (CAKI-1 renal): > 100 µM
- TGI (CAKI-1 renal): > 100 µM
- GI50 (RPMI-8226 leukemia): > 100 µM
- TGI (RPMI-8226 leukemia): > 100 µM
- GI50 (SF-295 CNS): > 100 µM
- TGI (SF-295 CNS): > 100 µM
- GI50 (SK-OV-3 ovarian): > 100 µM
- TGI (SK-OV-3 ovarian): > 100 µM
- GI50 (MDA-MB-435): > 100 µM
- TGI (MDA-MB-435): > 100 µM
- GI50 (UACC-62 melanoma): > 100 µM
- TGI (UACC-62 melanoma): > 100 µM
- GI50 (A549 NSCLC): > 100 µM
- TGI (A549 NSCLC): > 100 µM
- GI50 (SF-268 CNS): > 100 µM
- TGI (SF-268 CNS): > 100 µM
- GI50 (MDA-MB-231 breast): > 100 µM
- TGI (MDA-MB-231 breast): > 100 µM
- GI50 (TK-10 renal): > 100 µM
- TGI (TK-10 renal): > 100 µM
- GI50 (KM12 colon): > 100 µM
- TGI (KM12 colon): > 100 µM
- GI50 (NCI-H460 lung): > 100 µM
- TGI (NCI-H460 lung): > 100 µM
- GI50 (IGROV1 ovarian): > 100 µM
- TGI (IGROV1 ovarian): > 100 µM
- GI50 (SR leukemia): > 100 µM
- TGI (SR leukemia): > 100 µM
- GI50 (A498 renal): > 100 µM
- TGI (A498 renal): > 100 µM
- GI50 (OVCAR-3 ovarian): > 100 µM
- TGI (OVCAR-3 ovarian): > 100 µM
- GI50 (HCT-15 colon): > 100 µM
- TGI (HCT-15 colon): > 100 µM
- GI50 (NCI-H226 lung): > 100 µM
- TGI (NCI-H226 lung): > 100 µM
- GI50 (SN12C renal): > 100 µM
- TGI (SN12C renal): > 100 µM
- GI50 (MALME-3M melanoma): > 100 µM
- TGI (MALME-3M melanoma): > 100 µM
- GI50 (MOLT-4 leukemia): > 100 µM
- TGI (MOLT-4 leukemia): > 100 µM
- GI50 (SF-539 CNS): > 100 µM
- TGI (SF-539 CNS): > 100 µM
- GI50 (UO-31 renal): > 100 µM
- TGI (UO-31 renal): > 100 µM
- GI50 (NCI-H23 lung): > 100 µM
- TGI (NCI-H23 lung): > 100 µM
- GI50 (SNB-19 CNS): > 100 µM
- TGI (SNB-19 CNS): > 100 µM
- GI50 (U251 CNS): > 100 µM
- TGI (U251 CNS): > 100 µM
- GI50 (HCT-116 colon): > 100 µM
- TGI (HCT-116 colon): > 100 µM
- GI50 (UACC-257 melanoma): > 100 µM
- TGI (UACC-257 melanoma): > 100 µM
- GI50 (NCI/ADR-RES ovarian): > 100 µM
- TGI (NCI/ADR-RES ovarian): > 100 µM
- GI50 (SW-620 colon): > 100 µM
- TGI (SW-620 colon): > 100 µM
- GI50 (HL-60(TB) leukemia): > 100 µM
- TGI (HL-60(TB) leukemia): > 100 µM
- GI50 (HOP-62 NSCLC): > 100 µM
- TGI (HOP-62 NSCLC): > 100 µM
- GI50 (SK-MEL-28 melanoma): > 100 µM
- TGI (SK-MEL-28 melanoma): > 100 µM
- GI50 (786-0 renal): > 100 µM
- TGI (786-0 renal): > 100 µM
- GI50 (NCI-H522 lung): > 100 µM
- TGI (NCI-H522 lung): > 100 µM
- GI50 (DU-145 prostate): > 100 µM
- TGI (DU-145 prostate): > 100 µM
- GI50 (M14 melanoma): > 100 µM
- TGI (M14 melanoma): > 100 µM
- GI50 (SK-MEL-2 melanoma): > 100 µM
- TGI (SK-MEL-2 melanoma): > 100 µM
- GI50 (RXF 393 renal): > 100 µM
- TGI (RXF 393 renal): > 100 µM
- GI50 (LOX IMVI melanoma): > 100 µM
- TGI (LOX IMVI melanoma): > 100 µM
- GI50 (OVCAR-5 ovarian): > 100 µM
- TGI (OVCAR-5 ovarian): > 100 µM
- GI50 (SNB-75 CNS): > 100 µM
- TGI (SNB-75 CNS): > 100 µM
- GI50 (BT-549 breast): > 100 µM
- TGI (BT-549 breast): > 100 µM
- GI50 (ACHN renal): > 100 µM
- TGI (ACHN renal): > 100 µM
- GI50 (SK-MEL-5 melanoma): > 100 µM
- TGI (SK-MEL-5 melanoma): > 100 µM
- GI50 (OVCAR-8 ovarian): > 100 µM
- TGI (OVCAR-8 ovarian): > 100 µM
- GI50 (HOP-92 NSCLC): > 100 µM
- TGI (HOP-92 NSCLC): > 100 µM
- GI50 (HT29 colon): > 100 µM
- TGI (HT29 colon): > 100 µM
- GI50 (HCC-2998 colon): > 100 µM
- TGI (HCC-2998 colon): > 100 µM
- GI50 (COLO 205 colon): > 100 µM
- TGI (COLO 205 colon): > 100 µM
